This note sets out measurements from patent US20230314454A1, “BLOOD COAGULATION TEST REAGENT, AND BLOOD COAGULATION TEST METHOD” (Thrombo Translational Research Lab Inc., priority 2020, published 2023).

Bounds are passed on as bounds.

Experiment [1] has as its system thrombin generation in patient plasma. Kind of experiment: Thrombin generation test (TF/FXIa initiation reagent), apixaban spiked into patient plasma. The format is biochemical, human. Here is the method:
(§1) In test, plasma specimens were prepared by centrifugation of blood that was collected using an anticoagulant citric acid. The plasma specimens were frozen at −80° C. until the test starts, and thawed at 37° C. immediately before the test, and used.
(§2) The thrombin generation initiation reagent was prepared by mixing the following reagents. The thrombin formation initiation reagent was appropriately diluted with 50 mM tris buffer solution containing 0.5% bovine serum albumin (purchased from FUJIFILM Wako Pure Chemical Corporation) and 0.15 M sodium chloride (purchased from FUJIFILM Wako Pure Chemical Corporation) (BSA/TBS, pH 7.4). • Human TF (Dade Innovin, purchased from SYSMEX CORPORATION) solution • Human FXIa (purchased from Funakoshi Co., Ltd.) solution • Synthetic phospholipids (purchased from Haematex) solution • Calcium chloride (purchased from FUJIFILM Wako Pure Chemical Corporation) solution […]
(§3) To quantify the generated thrombin, the thrombin detection reagent containing EDTA, which was a reaction stopping reagent, was then added to the plasma, followed by incubation at 37° C. for 1 minute. Since thrombin hydrolyzed the thrombin fluorogenic substrate to emit fluorescence during the incubation, the fluorescence intensity was measured using a fluorescence plate reader (excitation wavelength: 355 nm, fluorescence wavelength: 460 nm). The measured fluorescence intensity was converted into the thrombin concentration based on a standard curve constructed using a thrombin standard substance (Technothrombin TGA calibrator, purchased from Cosmo Bio Co., Ltd.). The thrombin generation in the plasma was expressed as a relative ratio (%) with respect to the thrombin generation in control plasma (Siemens control plasma N for blood coagulation test, purchased from SYSMEX CORPORATION).
To test inhibitory effect of the DOACs on thrombin generation, Test specimens were prepared by spiking rivaroxaban, apixaban, or edoxaban into plasma, and the thrombin generation in the plasma was assessed. […]

Experiment [2] relates to thrombin generation in plasma. The experiment in a line: Thrombin generation in plasma over time after taking apixaban. The format is in vivo, human. Conditions: patients #004 and #005, 10 mg apixaban taken. On the procedure: as §1
The thrombin generation initiation reagent was prepared by mixing the following reagents. […]
as §3, with “CORPORATION). […]” for “CORPORATION).”

Experiment [3] concerns blood coagulant activity (clotting time). Kind of experiment: Blood coagulation tests APTT and PT-INR in plasma after taking apixaban. The format is in vivo, human. The settings on record: patients #004 and #005, after taking 10 mg apixaban.
Description: The coagulant activity of each of the test plasma specimen was tested using APTT and PT-INR test methods as blood coagulation tests. In both methods, the coagulant activity was determined by measuring clotting time after adding the coagulation initiation reagent into plasma specimens.
The test system of experiment [4] is thrombin generation in control plasma. Kind of experiment: Thrombin generation test (TF/FXIa initiation reagent), DOACs spiked into control plasma. The format is biochemical, human. Conditions: DOAC added to control plasma at 18.5 ng/mL to 500 ng/mL; FIG. 2. Here is the method: as §2
as §3, with “The thrombin generation in the plasma was expressed as a relative ratio (%) with respect to the thrombin generation in control plasma (Siemens control plasma N for blood coagulation test, purchased from SYSMEX CORPORATION).” left out

For the molecule `COc1ccc(-n2nc(C(N)=O)c3c2C(=O)N(c2ccc(N4CCCCC4=O)cc2)CC3)cc1` [apixaban], the “effect of apixaban addition on thrombin generation in patient plasma” value in experiment [1] (apixaban 125, 250 or 500 ng/mL, plasma of patients #001, #002, #003, 150 fM TF, 12.5 pM FXIa) is “suppressed thrombin generation in the plasma from the patient in a dose-dependent fashion”. The “thrombin generation relative to control plasma” value in experiment [1] (plasma of patient #003 after adding apixaban (125-500 ng/mL)) was 25%; in experiment [1] (plasma of patients #001 and #002 after adding apixaban (125-500 ng/mL)), at most 5%. The “change in thrombin generation after taking apixaban” value in experiment [2] was “decreased with increase in apixaban concentrations”. In addition, the “change in blood coagulant activities measured by APTT and PT-INR” value in experiment [3] is “no significant alteration”.

On to `O=C(NC[C@H]1CN(c2ccc(N3CCOCC3=O)cc2)C(=O)O1)c1ccc(Cl)s1` [rivaroxaban], for which, in experiment [4], the “inhibitory effect on thrombin generation compared among the three DOACs” value is reported as “strongest inhibitory effect”.
